Results reported in patent publication US20120100555A1, “Synthesis And Use Of Fluorophore-Tagged Antimalarials” (priority 2009, published 2012).

Key:
[1] = system: P. falciparum strains 3D7 (CQ-susceptible); experiment: Inhibitory concentration (IC50) determination, Hoechst staining and flow cytometry; type: cell-based, Plasmodium falciparum
Experimental: Parasitized cultures were incubated for 48 hours with various concentrations of the test compounds and, thereafter, parasitemia was determined using Hoechst staining and flow cytometric analyses.
(§1) Plasmodium falciparum culture. […] Parasite cultures were maintained in 75 cm^2 or 125 cm^2 flasks using malaria culture media (MCM) consisting of RPMI 1640 supplemented with 0.5% (w/v) albumax I (Invitrogen), 0.005% (w/v) hypoxanthine, 0.03% (w/v) L-glutamate, 0.25% (w/v) gentamycin and 2.5% human erythrocytes. Flasks were gassed with 3% CO2, 4% O2 and 93% N2 and incubated at 37° C. in a dark incubator. Culture medium was replenished during subculturing on alternate days. Thin Giemsa smears were made to determine parasitemia before subculture and at the start of each experiment. Sorbitol synchronization (See Lambros, C., and Vanderberg, J. P. (1979) J Parasitol 65, 418-420) was carried out weekly to select for ring-stage parasites. Saponin enrichment (See Beaumelle, B. D., et al., (1987) J. Parasitol 73, 743-748) was carried out prior to staining with CaspaTag to liberate the parasites from host erythrocytes. Cultures of approximately 10% parasitemia were used, with parasites being in the late-ring stage (22-26 hours post-invasion) during the administration of inhibitor and drugs unless otherwise stated.
Inhibitory concentration (IC50) determination. […] To determine parasitemia, cultures were stained with Hoechst 33342, as described above, and analyzed by flow cytometry.
(§2) Flow Cytometric Analyses. Cell numbers and fluorescence intensity after staining with JC-1 were assayed by a flow cytometer (DAKO Cytomation Cyan ADP), equipped with an argon-ion laser tuned to 488 nm and a violet laser tuned to 405 nm. Green and red fluorescence was detected using 525 and 595 nm band-pass filters respectively. The flow cytometer was adjusted for forward and side scattering to accommodate infected erythrocytes. Between 10,000 to 20,000 infected erythrocytes or enriched parasites were analyzed from each sample and its respective duplicate to ensure reliability. At least three independent experiments were performed unless otherwise stated.

P. falciparum, 3D7 [2] = experiment: Mitochondria trans-membrane potential assay (JC-1); type: cell-based, Plasmodium falciparum
Experimental: as §1, with “Cultures of approximately 10% parasitemia were used, with parasites being in the late-ring stage (22-26 hours post-invasion) during the administration of inhibitor and drugs unless otherwise stated.” left out
as §2, with “The flow cytometer was adjusted for forward and side scattering to accommodate infected erythrocytes.” left out, “At least three independent experiments were performed unless otherwise stated.” left out

[3] = system: Plasmodium falciparum parasites; experiment: CM-CQ accumulation with chemo-sensitizers, fluorescent plate reader; type: cell-based; settings: for effect of pre-treatment on CM-CQ accumulation in K1: K1 (CQ-resistant), 10 uM chemo-sensitizer 30 min, then 6 uM CM-CQ 10 hrs
Experimental: FIG. 9 is a graph showing the effects of chemo-sensitizers on coumarin-conjugated chloroquine (CM-CQ) accumulation in Plasmodium falciparum parasites, obtained by spectrofluorometer plate readings.
(§3) Subsequently, 6 uM of Coumarin-Chloroquine (CM-CQ) was added to the samples for 10 hrs and left to incubate in the dark at 37° C. To ascertain the exact parasitemia of each condition, cultures in duplicate wells were stained with Hoechst just before flow cytometric analysis and fluorescence plate measurements. The proportion of CM-CQ-stained parasites was the ratio of the proportion of CM-CQ-stained infected erythrocyte culture over the proportion of Hoechst-positive erythrocytes.

[4] = system: Plasmodium falciparum parasites; experiment: CM-CQ accumulation with chemo-sensitizers, flow cytometry; type: cell-based; settings: for effect of pre-treatment on CM-CQ accumulation in K1: K1 (CQ-resistant), 10 uM chemo-sensitizer 30 min, then 6 uM CM-CQ 10 hrs
Experimental: FIG. 8 is a graph showing the effects of chemo-sensitizers on coumarin-conjugated chloroquine (CM-CQ) accumulation in Plasmodium falciparum parasites. Data were obtained by flow cytometry.
as §3

P. falciparum, 3D7 [5] = settings: low nanomolar concentrations of CQ, 8 hours
Experimental: as §1

[6] = 3D7, 48 hours, at the tested concentrations

Compound | effect of pre-treatment on CM-CQ accumulation in K1 [3] | effect of pre-treatment on CM-CQ accumulation in K1 [4] | also measured
CN(C)c1ccc2c(CC(=O)O)cc(=O)oc2c1 [CM, 7-dimethyl amino-4-coumarinacetic acid] |  |  | cytotoxicity [1, 6]: not cytotoxic; inhibitory effect on parasitemia [1, 6]: no detectable inhibitory effect
CCN(CCCCNc1ccnc2cc(Cl)ccc12)CC(=O)NCCNC(=O)Cc1cc(=O)oc2cc(N(C)C)ccc12 [CM-CQ] |  |  | proportion of parasites containing functional mitochondrion with transmembrane potential (ΔΨm) after treatment (P. falciparum, 3D7 [2]; JC-1 J-aggregates, dose-dependent decline from about 90% in uninduced cells): ~60%; CM-CQ accumulation, 3D7 compared to 7G8 and K1 ([3]; 6 uM CM-CQ 10 hrs, p<0.001): different levels; activity compared to chloroquine (FIG. 2) ([1]; 3D7): activity comparable to chloroquine; IC50 ([1]; Plasmodium falciparum, read-out: IC50 (50% inhibitory concentration), 3D7, ring stage, 48 hours, parasitemia by Hoechst 33342 flow cytometry): 349 nM; CM-CQ accumulation, 3D7 compared to 7G8 and K1 ([4]; 6 uM CM-CQ 10 hrs, p<0.05): different levels
CN(C)CCC(c1ccc(Cl)cc1)c1ccccn1 (centres unmarked) [CPR, chlorpheneramine] | significantly increased | increase was also detected | 
CN(C)CCCN1c2ccccc2Sc2ccc(Cl)cc21 [CPZ, chlorpromazine] | significantly increased | significantly increased | 
CCN(CC)CCCC(C)Nc1ccnc2cc(Cl)ccc12 (centres unmarked) [CQ, Chloroquine diphosphate] |  |  | PCD features (JC-1) (P. falciparum, 3D7 [2]; low nanomolar concentrations of CQ, 8 hours): basal levels; PCD features (CaspaTag) (P. falciparum, 3D7 [5]): basal levels
CNCCCN1c2ccccc2CCc2ccccc21 [DSP, desipramine] | significantly increased | significantly increased | 
COc1ccc([C@@H]2Sc3ccccc3N(CCN(C)C)C(=O)[C@@H]2OC(C)=O)cc1 [DTZ, diltiazem] | not | not | 
CC(CN1c2ccccc2Sc2ccccc21)N(C)C (centres unmarked) [PMZ, promethazine] | increase was also detected | significantly increased | 
CC(C)NCC(O)COc1cccc2ccccc12 (centres unmarked) [PPL, propranolol] | not | not | 
COc1ccc(CCN(C)CCCC(C#N)(c2ccc(OC)c(OC)c2)C(C)C)cc1OC (centres unmarked) [VPM, verapamil] | significantly increased | significantly increased | 
